These results are taken from patent publication US5476856A, “Treatment of PAF and histamine-mediated diseases with 8-chloro-11-[1-[(5-methyl-3-pyridyl)methyl]-4-piperidyliden]-6,11-dihydr o-5H-benzo[5,6]cyclohepta[1,2-b]pyridine” (J. Uriach & Cia. S.A., priority 1992, dated 1995).

Structures can show the parent of a compound that is named as a salt.

Assay [1] relates to histamine-induced contraction of guinea-pig ileum (AntiH1). Kind of assay: Antihistamine activity in guinea-pig ileum (Test 4, AntiH1 act.). Format: cell-based, Dunkin-Hartley guinea pigs. The settings on record: for IC50: Cavia porcellus, histamine 5×10^-7 M, 5 min preincubation, read-out: Antihistaminic activity in vitro, Test 4 AntiH1 act. ileum IC50; for IC50 / antihistamine activity compared with compounds 11 and 12-14, in words / antihistamine potency in words: guinea-pig ileum. As to the method: This test was performed according to the method of Magnus. Male Dunkin-Hartley guinea pigs (b.w. 300-350 g), fasted overnight, were used. Animals were stunned, the abdomen was opened and 4 cm long ileum sections were cut. The sections were placed in a Petri dish containing Tyrode's solution at 37° C. and continuously bubbled with carbogen. The ileum fragments were washed with Tyrode's solution and then were transferred to an organ bath. Ileum contraction was measured using an isometric transducer. The initial load was 1 g. After a stabilization period of 20 min in which the organ is immersed in Tyrode's solution at 37° C. continuously bubbled with carbogen, non cumulative stimuli with submaximal doses of histamine (5×10^-7 M) were given. The contraction in absence or presence (5 min. preincubation time) of the test compounds was recorded.

For assay [2], the system named is platelet aggregation induced by PAF. In words: Inhibition of platelet aggregation induced by PAF (Test 1). Type of assay: cell-based, New Zealand albino rabbits. As to conditions: Oryctolagus cuniculus; rabbit platelet rich plasma; PAF (C18) 16 nM final; read-out: PAF antagonism in vitro, Test 1 Plat. aggreg. IC50. As to the method: The platelet rich plasma (PRP) is prepared by blood centrifugation at 250×g for 10 min. at 4° C. and it is diluted with platelet poor plasma (PPP) obtained by additional centrifugation at 3000×g for 10 min. The amount of platelets is adjusted to […].

Assay [3] deals with mortality induced by PAF. Kind of assay: Mortality induced by PAF in mice (p.o.) (Test 3). Format: in vivo, Swiss mice. As to conditions: for ED50: Mus musculus, 2 h, po, 1 h before 100 mcg/kg PAF-C18 and 1 mg/kg propanolol, 50% inhibition of mortality, read-out: PAF antagonism in vivo, Test 3 Mort. ID50. As to the method: This test was performed according to the procedure described by Young et al. (Prostaglandins, 1985, 30, 545-551). Groups of 10 Swiss mice weighing from 22 to 26 g were used. 100 mcg/kg of PAF-C18 and 1 mg/kg of propanolol were administered through a lateral tail vein 1 h after the oral administration of the compounds to be tested (0.2 mL/10 g). Animals were examined 2 h after the injection of PAF. The percentage of the inhibition of the mortality induced by PAF was determined for all test compounds in comparison with the control group. The results are expressed as ID50 values, that is to say, the amount of compound by weight of animal (dose) needed to inhibit the mortality induced by PAF in a 50%.

The test system of assay [4] is hypotension induced by PAF. In words: Inhibition of the hypotensive effect induced by PAF in normotense rats (Test 2). As to conditions: Rattus norvegicus; iv, 3 min before PAF 0.5 mcg/Kg i.v.; 50% inhibition of hypotension; read-out: PAF antagonism in vivo, Test 2 Art. p. ID50. On the set-up: species or system Sprage Dawley rats. As to the method: Male Sprage Dawley rats (b.w. 180-220 g) anesthetized with sodium pentobarbital (50 mg/Kg, i.p. 1 mL/100 g) are used. In order to measure the average arterial pressure, a polyethylene catheter is introduced into the carotid artery. The arterial pressure is recorded with the help of a transducer connected with a R611 Beckman polygraph. The test compounds are administered through the femoral vein 3 min. before the injection of PAF (0.5 mcg/Kg, i.v.).

The term IC50 denotes the point on the concentration scale where inhibition reaches its midpoint. Consider `Cc1ccncc1CN1CCC(=C2c3ccc(Cl)cc3CCc3cccnc32)CC1` [Compound 5, 8-chloro-11-(1-[(4-methyl-3-pyridyl)methyl]-4-piperidyliden)-6,11-dihydro-5H -benzo[5.6]cyclohepta[1,2]pyridine], for which, in assay [1], the IC50 amounted to 35 nM; the “antihistamine activity compared with compounds 11 and 12-14, in words” value is “stronger activity than the 4-pyridine 11 and the compounds 12-14”; the “antihistamine potency in words” value is given as “potent antihistamines”. Besides, the half-maximal inhibitory concentration (IC50) in assay [2] was 15000 nM. Moreover, the ED50 in assay [3] lay in the range of 10 to 30 mg/kg. The ED50 in assay [4] was over 5 mg/kg.

For the compound `CCOC(=O)N1CCC(=C2c3ccc(Cl)cc3CCc3cccnc32)CC1` [Compound 14, reference compound], the values for the ED50 in assay [3] and in assay [4] were over 30 mg/kg and over 5 mg/kg, respectively.

`Cc1ncccc1CN1CCC(=C2c3ccc(Cl)cc3CCc3cccnc32)CC1` [Compound 3, 8-chloro-11-(1-[(2-methyl-3-pyridyl)methyl]-4-piperidyliden)-6,11-dihydro-5H-benzo [5,6]cyclohepta[1,2-b]pyridine]: the half-inhibitory concentration (IC50) in assay [1] turned out to be 270 nM; in assay [2] it was 13000 nM. The ED50 in assay [3] was over 30 mg/kg; in assay [4], over 5 mg/kg.

Regarding `Clc1ccc2c(c1)CCc1cccnc1C2=C1CCN(Cc2cncc(Br)c2)CC1` [Compound 8, 8-chloro-11-(1-[(3-bromo-5-pyridyl)methyl]-4-piperidyliden)-6,11-dihydro-5H -benzo[5,6]cyclohepta[1,2-b]pyridine, trihydrochloride], the half-inhibitory concentration (IC50) was 280 nM in assay [1] and 720 nM in assay [2]. The ED50 in assay [3] was under 30 mg/kg; in assay [4] it was over 5 mg/kg.

Regarding `Clc1ccc2c(c1)CCc1cccnc1C2=C1CCN(Cc2ccncc2)CC1` [Compound 11, reference compound], the results for the half-maximal inhibitory concentration (IC50) in assay [1] and in assay [2] were 94 nM and 1800 nM, respectively. The figures for the ED50 in assay [3] and in assay [4] were 30 mg/kg and over 5 mg/kg, respectively.

For `O=C(c1cc[n+]([O-])cc1)N1CCC(=C2c3ccc(Cl)cc3CCc3cccnc32)CC1` [Compound 13, reference compound], the results for the IC50 in assay [1] and in assay [2] were 210 nM and 220 nM, respectively. Further, the ED50 in assay [3] was over 30 mg/kg; in assay [4], 1.9 mg/kg.

`CC(=O)N1CCC(=C2c3ccc(Cl)cc3CCc3cccnc32)CC1` [Compound 12, reference compound]: the values for the half-maximal inhibitory concentration (IC50) in assay [1] and in assay [2] were 100 nM and 840 nM, respectively. Besides, the ED50 in assay [3] came out at 31 mg/kg; in assay [4] it was 2 mg/kg.

With `Clc1ccc2c(c1)CCc1cccnc1C2=C1CCN(Cc2cccnc2Cl)CC1` [Compound 6, 8-chloro-11-(1-[(2-chloro-3-pyridyl)methyl]-4-piperidyliden)-6,11-dihydro-5H -benzo[5,6]cyclohepta[1,2-b]pyridine], the 50% inhibitory concentration (IC50) in assay [1] was 350 nM; in assay [2], over 100000 nM. The ED50 is over 30 mg/kg in assay [3] and over 5 mg/kg in assay [4].

For the compound `COc1ccc(CN2CCC(=C3c4ccc(Cl)cc4CCc4cccnc43)CC2)cn1` [Compound 9, 8-chloro-11-(1-[(6-methoxy-3-pyridyl)methyl]-4-piperidyliden)-6,11-dihydro-5H -benzo[5,6]cyclohepta[1,2-b]pyridine], the IC50 in assay [1] came to 380 nM; in assay [2] it was 37000 nM.

As for `Cc1cncc(CN2CCC(=C3c4ccc(Cl)cc4CCc4cccnc43)CC2)c1` [Compound 4, 8-chloro-11-[1-[(5-methyl-3-pyridyl)methyl]-4-piperidyliden]-6,11-dihydro-5H-benzo[5,6]cyclohepta[1,2-b]pyridine], in assay [1], the IC50 is 4.3 nM; the “antihistamine activity compared with compounds 11 and 12-14, in words” value was “stronger activity than the 4-pyridine 11 and the compounds 12-14”; the “antihistamine potency in words” value was “potent antihistamines”. The “antihistaminic potency relative to the 2-methyl derivative 3” value in assay [1] (more potent than compound 3) was about 100 fold. Moreover, the “antihistaminic potency relative to compound 11” value in assay [1] (more potent than compound 11) is on record as 20 fold. In addition, the “antihistaminic potency relative to the 6-methyl and 4-methyl derivatives 2 and 5” value in assay [1] (more potent than compounds 2 and 5) worked out at 10 fold. For the same compound, in assay [2], the IC50 amounted to 3200 nM. In addition, the ED50 in assay [3] stood at 1.9 mg/kg. In addition, in assay [3] (oral administration), the “activity in the PAF-induced mortality test, in words” value was “strong activity”. Moreover, the “activity in the PAF-induced mortality test relative to all the other tested compounds” value in assay [3] (oral, superior to all the other tested compounds) is at least 10 fold. In addition, the ED50 in assay [4] came to 0.44 mg/kg.

Turning to `Clc1ccc2c(c1)CCc1cccnc1C2=C1CCN(Cc2ccc(Cl)nc2)CC1` [Compound 7, 8-chloro-11-(1-[(6-chloro-3-pyridyl)methyl]-4-piperidyliden)-6,11-dihydro-5H -benzo[5,6]cyclohepta[1,2-b]pyridine], the half-inhibitory concentration (IC50) in assay [2] is over 100000 nM. Also, the ED50 in assay [3] is 20 to 30 mg/kg; in assay [4], over 5 mg/kg.

On to `Clc1ccc2c(c1)CCc1cccnc1C2=C1CCN(Cc2cccnc2)CC1` [Compound 1, 8-chloro-11-(1-(3-pyridylmethyl)-4-piperidyliden)-6,11-dihydro-5H-benzo[5,6]cyclohepta[1,2-b]pyridine], for which the concentration for half-maximal inhibition (IC50) in assay [1] is 160 nM; in assay [2], 4000 nM. In addition, the ED50 was 30 mg/kg in assay [3] and over 5 mg/kg in assay [4].

Consider `Cc1ccc(CN2CCC(=C3c4ccc(Cl)cc4CCc4cccnc43)CC2)cn1` [Compound 2, 8-chloro-11-(1-[(6-methyl-3-pyridyl)metyl]-4-piperidyliden)-6,11-dihydro-5H-benzo [5,6]cyclohepta[1,2-]pyridine], for which, in assay [1], the IC50 came out at 37 nM; the “antihistamine activity compared with compounds 11 and 12-14, in words” value was “stronger activity than the 4-pyridine 11 and the compounds 12-14”; the “antihistamine potency in words” value was “potent antihistamines”. The concentration for half-maximal inhibition (IC50) in assay [2] stood at 9000 nM. In addition, in assay [3], the ED50 is 30 mg/kg. Further, the ED50 in assay [4] is over 5 mg/kg.
